According to ChEMBL document CHEMBL1133774, “'3+1' mixed-ligand oxotechnetium(V) complexes with affinity for melanoma: synthesis and evaluation in vitro and in vivo” (J Med Chem, 2000):

Assays:
[1] = Biodistribution after 1 hour of postinjection in brain; format: ADME, organism-based; conditions: in vivo
[2] = Partition coefficient of the unprotonated free amine (logP); format: physicochemical; conditions: octanol/water
[3] = Biodistribution after 1 hour of postinjection in heart; format: ADME, organism-based; conditions: in vivo
[4] = Biodistribution after 1 hour of postinjection in melanoma/liver; format: ADME, organism-based; conditions: in vivo
[5] = Biodistribution after 1 hour of postinjection in spleen; format: ADME, organism-based; conditions: in vivo
[6] = Biodistribution after 6 hours of postinjection in brain; format: ADME, organism-based; conditions: in vivo
[7] = Biodistribution after 1 hour of postinjection in kidney; format: ADME, organism-based; conditions: in vivo
[8] = Partition coefficient (logD7.4); format: physicochemical; conditions: octanol/water, pH 7.4
[9] = Biodistribution after 1 hour of postinjection in melanoma/lungs; format: ADME, organism-based, Lung; conditions: in vivo
[10] = Biodistribution after 6 hours of postinjection in heart; format: ADME, organism-based; conditions: in vivo
[11] = Biodistribution after 6 hours of postinjection in melanoma/blood; format: ADME, organism-based; conditions: in vivo
[12] = Biodistribution after 6 hours of postinjection in melanoma/spleen; format: ADME, organism-based; conditions: in vivo
[13] = Biodistribution after 6 hours of postinjection in melanoma; format: ADME, organism-based; conditions: in vivo
[14] = Biodistribution after 6 hours of postinjection in melanoma/liver; format: ADME, organism-based; conditions: in vivo
[15] = Biodistribution after 1 hour of postinjection in blood; format: ADME, organism-based; conditions: in vivo
[16] = Biodistribution after 1 hour of postinjection in liver; format: ADME, organism-based; conditions: in vivo
[17] = Biodistribution after 6 hours of postinjection in muscle; format: ADME, organism-based, Muscle tissue; conditions: in vivo
[18] = Biodistribution after 6 hours of postinjection in melanoma/lungs; format: ADME, organism-based, Lung; conditions: in vivo
[19] = Biodistribution after 6 hours of postinjection in liver; format: ADME, organism-based; conditions: in vivo
[20] = Biodistribution after 6 hours of postinjection in spleen; format: ADME, organism-based; conditions: in vivo
[21] = Biodistribution after 6 hours of postinjection in lungs; format: ADME, organism-based, Lung; conditions: in vivo
[22] = Biodistribution after 1 hour of postinjection in melanoma; format: ADME, organism-based; conditions: in vivo
[23] = aqueous ionization constant (pKa) determined by HPLC methods; format: physicochemical; conditions: buffer
[24] = Biodistribution after 1 hour of postinjection in muscle; format: ADME, organism-based, Muscle tissue; conditions: in vivo
[25] = Biodistribution after 1 hour of postinjection in melanoma/blood; format: ADME, organism-based; conditions: in vivo
[26] = Biodistribution after 6 hours of postinjection in blood; format: ADME, organism-based; conditions: in vivo
[27] = Biodistribution after 1 hour of postinjection in melanoma/spleen; format: ADME, organism-based; conditions: in vivo
[28] = Biodistribution after 6 hours of postinjection in kidney; format: ADME, organism-based; conditions: in vivo
[29] = Biodistribution after 1 hour of postinjection in lungs; format: ADME, organism-based, Lung; conditions: in vivo

Row | Substance | ID/g [1] | logP [2] | ID/g [3] | ID/g [5] | ID/g [7] | logD [8] | ID/g [10] | Ratio [11] | Ratio [12] | ID/g [13] | ID/g [15] | ID/g [16] | ID/g [19] | ID/g [20] | ID/g [21] | ID/g [22] | pKa [23] | ID/g [26] | ID/g [28] | ID/g [29] | further results
1 | N-methyl-3-azapentane-1,5-dithiol complex [listing 1 of 6 here] | 0.13% | 3.7 | 1.17% | 3.35% | 15.3% | 1.1 pH7.4 | 0.73% | 2.2 | 2.6 | 3.23% | 1.34% | 35.3% | 17.7% | 1.25% | 2.07% | 3.26% | 9.9 | 1.44% | 11.7% | 3.27% | Ratio [4]: < 1; ID/g [6]: 0.08%; Ratio [9]: 1; Ratio [14]: < 1; ID/g [17]: 0.26%; Ratio [18]: 1.6; ID/g [24]: 0.53%; Ratio [25]: 2.4; Ratio [27]: < 1
2 | N-methyl-3-azapentane-1,5-dithiol complex [listing 2 of 6 here] | 0.08% | 3.5 | 0.66% | 1.15% | 30.4% |  | 0.46% | 4.2 | 3.2 | 4.12% | 1.26% | 43.3% | 23% | 1.3% | 1.35% | 4.95% |  | 0.98% | 19.3% | 2.6% | Ratio [9]: 1.9; ID/g [17]: 0.2%; Ratio [18]: 3.1; ID/g [24]: 0.24%; Ratio [25]: 3.9; Ratio [27]: 4.3
3 | N-methyl-3-azapentane-1,5-dithiol complex [listing 3 of 6 here] | 0.32% | 3.6 | 2.09% | 6.04% | 24% | 0.95 pH7.4 | 0.86% |  | < 1 | 1.39% | 3.28% | 16.6% | 7.23% | 1.44% | 5.5% | 2.88% | 9.6 | 1.3% | 12.9% | 13.2% | ID/g [6]: 0.13%
4 | N-methyl-3-azapentane-1,5-dithiol complex [listing 4 of 6 here] | 0.24% | 2.7 | 1.74% | 2.39% | 13% | 1.6 pH7.4 | 1.15% | 1.4 | 1.7 | 2.83% | 3.49% | 7.11% | 6.1% | 1.66% | 3.4% | 2.55% | 8.3 | 2.05% | 10.1% | 5.73% | ID/g [24]: 0.78%; Ratio [27]: 1.1
5 | N-methyl-3-azapentane-1,5-dithiol complex [listing 5 of 6 here] | 0.18% | 1.7 | 1.84% | 3.44% | 17.9% | 0 pH7.4 | 0.84% | 2.3 | 4.5 | 3.13% | 2.08% | 27.3% | 18.7% | 0.7% | 1.96% | 3.23% | 9.7 | 1.35% | 17.9% | 2.73% | ID/g [6]: 0.14%; Ratio [9]: 4.5; ID/g [17]: 0.39%; Ratio [18]: 1.2; ID/g [24]: 0.57%; Ratio [25]: 1.6
6 | N-methyl-3-azapentane-1,5-dithiol complex [listing 6 of 6 here] | 0.64% | 1.2 | 1.26% | 5.57% | 19.4% | 1 pH7.4 | 0.83% | 1.1 | 1 | 1.53% | 2.36% | 4.02% | 1.53% | 2.91% | 2.91% | 2.16% | 7.2 |  | 11.3% | 5.75% | ID/g [6]: 0.26%; Ratio [9]: < 1; Ratio [18]: < 1; Ratio [25]: < 1
